In patent US9181236B2, “2-spiro-substituted iminothiazines and their mono-and dioxides as bace inhibitors, compositions and their use” (Merck Sharp & Dohme Corp., priority 2011, dated 2015):

What was measured:
[1] = target: purified human autoBACE-2 (Homo sapiens (Human), UniProt Q9Y5Z0); experiment: BACE-2 Assay (BACE-HTRF assay); format: biochemical; conditions: Ki calculated from IC50 using the Cheng-Prusoff equation; read-out: BACE2 Ki
Procedure: Inhibitor IC50s at purified human autoBACE-2 are determined in a time-resolved endpoint proteolysis assay that measures hydrolysis of the QSY7-[…]-Eu-amide FRET peptide substrate (BACE-HTRF assay). […] DMSO is present at 5% final concentration in the assay. Following laser excitation of sample wells at 320 nm, the fluorescence signal at 620 nm is collected for 400 ms following a 50 μs delay on a RUBYstar HTRF plate reader (BMG Labtechnologies). Raw RFU data is normalized to maximum (1.0 nM BACE/DMSO) and minimum (no enzyme/DMSO) RFU values. […] The Ki values are calculated from the IC50 using the Cheng-Prusoff equation.

[2] = target: soluble human BACE1 catalytic domain (Homo sapiens (Human), UniProt P56817); experiment: BACE1 HTRF FRET Assay; format: biochemical; conditions: for Ki: Ki calculated from IC50 using the Cheng-Prusoff equation
Text: A homogeneous time-resolved FRET assay can be used to determine IC50 values for inhibitors of the soluble human BACE1 catalytic domain. This assay monitors the increase of 620 nm fluorescence that resulted from BACE1 cleavage of an APPswedish APP^swe mutant peptide FRET substrate (QSY7-[…]-Europium-amide). This substrate contains an N-terminal QSY7 moiety that serves as a quencher of the C-terminal Europium fluorophore (620 nm Em). In the absence of enzyme activity, 620 nm fluorescence is low in the assay and increased linearly over 3 hours in the presence of uninhibited BACE1 enzyme Inhibition of BACE1 cleavage of the QSY7-APP^swe-Eu substrate by inhibitors is manifested as a suppression of 620 nm fluorescence.
Reactions are initiated by addition of 10 μl of 600 nM QSY7-APP^swe-Eu substrate (200 nM final) to give a final reaction volume of 30 μl in a 384 well Nunc HTRF plate. The reactions are incubated at 30° C. for 1.5 hours. The 620 nm fluorescence is then read on a Rubystar HTRF plate reader (BMG Labtechnologies) using a 50 millisecond delay followed by a 400 millisecond acquisition time window Inhibitor IC50 values are derived from non-linear regression analysis of concentration response curves.

Sequence of purified human autoBACE-2 (Q9Y5Z0 63-473 limits assumed): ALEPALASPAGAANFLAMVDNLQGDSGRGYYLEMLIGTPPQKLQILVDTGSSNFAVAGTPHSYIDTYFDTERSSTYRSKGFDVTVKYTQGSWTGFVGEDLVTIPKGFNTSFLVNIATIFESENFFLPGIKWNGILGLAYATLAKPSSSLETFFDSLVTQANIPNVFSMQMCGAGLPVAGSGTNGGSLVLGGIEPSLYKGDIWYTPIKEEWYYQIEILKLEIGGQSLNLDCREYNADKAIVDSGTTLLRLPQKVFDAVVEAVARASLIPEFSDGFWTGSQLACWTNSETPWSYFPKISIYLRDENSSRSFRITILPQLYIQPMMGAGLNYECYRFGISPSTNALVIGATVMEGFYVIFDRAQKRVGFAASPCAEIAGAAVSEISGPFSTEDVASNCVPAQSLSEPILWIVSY
Sequence of soluble human BACE1 catalytic domain (P56817 75-416): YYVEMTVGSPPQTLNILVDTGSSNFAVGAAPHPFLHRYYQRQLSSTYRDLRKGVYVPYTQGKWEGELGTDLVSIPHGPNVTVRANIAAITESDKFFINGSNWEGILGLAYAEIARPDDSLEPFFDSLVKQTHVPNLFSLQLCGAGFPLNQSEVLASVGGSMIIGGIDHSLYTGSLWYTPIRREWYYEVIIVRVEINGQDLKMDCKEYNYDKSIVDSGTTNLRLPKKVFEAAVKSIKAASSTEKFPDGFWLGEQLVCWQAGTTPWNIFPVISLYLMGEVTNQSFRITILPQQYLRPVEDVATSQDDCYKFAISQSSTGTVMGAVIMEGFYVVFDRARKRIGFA

Ki [1]	Ki [2]	inhibition at 1 µM ([2]; read-out: BACE1 % Inh. at 1 μM)	inhibition at 10 µM ([2]; read-out: BACE1 % Inh. at 10 μM)	SMILES
0.9 nM	6.3 nM	–	–	COc1cccc2cc(-c3cc(Cl)c([C@]4(C)CS(=O)(=O)[C@]5(CCOC5)C(=N)N4)s3)[nH]c12 [Example 62g]
< 50 nM	23.3 nM	–	–	C[C@@]1(c2cc(NC(=O)c3ccc(C(F)(F)F)cn3)ccc2F)CS(=O)(=O)C2(CCCCC2)C(=N)N1 [Example 29]
4.3 nM	24 nM	–	–	C[C@@]1(c2cc(NC(=O)c3ccc(F)cn3)ccc2F)CS(=O)(=O)[C@]2(CCOC2)C(=N)N1 [Example 62b]
0.3 nM	1.3 nM	–	–	C[C@@]1(c2cc(NC(=O)c3ccc(Cl)cn3)ccc2F)CS(=O)(=O)C2(CCCC2)C(=N)N1 [Example 12]
< 20 nM	6.1 nM	–	–	C[C@@]1(c2cc(NC(=O)c3ccc(C#N)cn3)ccc2F)CS(=O)(=O)[C@]2(CCOC2)C(=N)N1 [Example 62e]
1090 nM	2370 nM	–	–	C[C@@]1(c2sc(Br)cc2Cl)CS(=O)(=O)C2(CCOCC2)C(=N)N1
4.4 nM	32 nM	–	–	C[C@@]1(c2cc(NC(=O)c3ccc(F)cn3)ccc2F)CS(=O)(=O)C2(CCCCC2)C(=N)N1 [Example 25]
< 20 nM	74 nM	–	–	COc1cccc(NC(=O)c2cc(Cl)c([C@]3(C)CS(=O)(=O)C4(CC4)C(=N)N3)s2)n1 [Example 79a]
< 50 nM	35.9 nM	–	–	C[C@@]1(c2sc(-c3cccc(-c4nnco4)c3)cc2Cl)CS(=O)(=O)C2(CCCCC2)C(=N)N1 [Example 47a]
< 50 nM	110 nM	–	–	C[C@@]1(c2sc(C#CC3CCCC3)cc2Cl)CS(=O)(=O)C2(CCC2)C(=N)N1 [Example 77b]
< 50 nM	18.6 nM	–	–	C[C@@]1(c2sc(-c3cccc(-c4nnco4)c3)cc2Cl)CS(=O)(=O)C2(CCC2)C(=N)N1 [Example 61a]
< 20 nM	5.2 nM	–	–	C[C@@]1(c2cc(NC(=O)c3ccc(C#N)cn3)ccc2F)CS(=O)(=O)[C@@]2(CCOC2)C(=N)N1 [Example 63d]
< 20 nM	30.3 nM	–	–	COc1ccc(C(=O)Nc2ccc(F)c([C@]3(C)CS(=O)(=O)[C@]4(CCOC4)C(=N)N3)c2)nc1 [Example 62a]
935 nM	–	42%	–	C[C@@]1(c2cc(Br)ccc2F)CS(=O)(=O)C2(CCCC2)C(=N)N1
3580 nM	7020 nM	–	–	C[C@@]1(c2cc(N)ccc2F)CS(=O)(=O)C2(CCOCC2)C(=N)N1
< 20 nM	67.1 nM	–	–	C[C@@]1(c2sc(-c3cncc(C#N)c3)cc2Cl)CS(=O)(=O)[C@]2(CCOC2)C(=N)N1 [Example 62f]
< 20 nM	18.4 nM	–	–	C[C@@]1(c2cc(NC(=O)c3cn4ncsc4n3)ccc2F)CS(=O)(=O)C2(CCCC2)C(=N)N1 [Example 19]
< 50 nM	296 nM	–	–	C[C@@]1(c2sc(-c3ccnc(-c4ccoc4)c3)cc2Cl)CS(=O)(=O)[C@]2(CCOC2)C(=N)N1 [Example 62j]
< 20 nM	10.7 nM	–	–	COc1ccc(C(=O)Nc2ccc(F)c([C@]3(C)CS(=O)(=O)C4(CCC4)C(=N)N3)c2)nc1 [Example 10]
< 20 nM	16.4 nM	–	–	COc1ccc(C(=O)Nc2ccc(F)c([C@]3(C)CS(=O)(=O)C4(CCOCC4)C(=N)N3)c2)nc1 [Example 35]
1 nM	10 nM	–	–	COc1cccc2cc(-c3cc(Cl)c([C@]4(C)CS(=O)(=O)C5(CC5)C(=N)N4)s3)[nH]c12 [Example 64]
< 50 nM	36 nM	–	–	COc1cnc(C(=O)Nc2ccc(F)c([C@]3(C)CS(=O)(=O)C4(CCCCC4)C(=N)N3)c2)cn1 [Example 27]
2.2 nM	45.3 nM	–	–	C[C@@]1(c2sc(-c3ccnc(-c4ccco4)c3)cc2Cl)CS(=O)(=O)[C@]2(CCOC2)C(=N)N1 [Example 62l]
< 20 nM	161 nM	–	–	COc1cc(C#N)cc(-c2cc(Cl)c([C@]3(C)CS(=O)(=O)C4(CCOCC4)C(=N)N3)s2)c1 [Example 57]
< 20 nM	88 nM	–	–	CCc1cccc(NC(=O)c2cc(Cl)c([C@]3(C)CS(=O)(=O)C4(CC4)C(=N)N3)s2)n1 [Example 79]
< 50 nM	2550 nM	–	–	C[C@@]1(c2sc(C#CC3(c4ccccc4)CCCC3)cc2Cl)CS(=O)(=O)C2(CCC2)C(=N)N1 [Example 77]

Ki [1]	Ki [2]	inhibition at 1 µM ([2]; read-out: BACE1 % Inh. at 1 μM)	inhibition at 10 µM ([2]; read-out: BACE1 % Inh. at 10 μM)	SMILES
< 50 nM	16.3 nM	–	–	COc1cnc(C(=O)Nc2ccc(F)c([C@]3(C)CS(=O)(=O)C4(CCOCC4)C(=N)N3)c2)cn1 [Example 32]
< 20 nM	5.4 nM	–	–	C[C@@]1(c2cc(NC(=O)c3ccc(C#N)cn3)ccc2F)CS(=O)(=O)C2(CCC2)C(N)=N1 [Example 11]
< 50 nM	227 nM	–	–	C[C@@]1(c2sc(C(=O)Nc3cccc(F)n3)cc2Cl)CS(=O)(=O)C2(CC2)C(=N)N1 [Example 79c]
1.5 nM	14.2 nM	–	–	COc1cccc2cc(-c3cc(Cl)c([C@]4(C)CS(=O)(=O)[C@@]5(CCOC5)C(=N)N4)s3)[nH]c12 [Example 63f]
< 20 nM	48 nM	–	–	C[C@@]1(c2sc(-c3cccc(C#N)c3)cc2Cl)CS(=O)(=O)C2(CCCCC2)C(=N)N1 [Example 45]
< 20 nM	305 nM	–	–	C[C@@]1(c2sc(-c3ccnc(-c4cccs4)c3)cc2Cl)CS(=O)(=O)[C@]2(CCOC2)C(=N)N1 [Example 62k]
< 50 nM	41 nM	–	–	COc1cnc(C(=O)Nc2ccc(F)c([C@]3(C)CS(=O)(=O)[C@@]4(CCOC4)C(=N)N3)c2)cn1 [Example 63]
1420 nM	4130 nM	–	–	C[C@@]1(c2cc(N)ccc2F)CS(=O)(=O)C2(CCCC2)C(=N)N1
2080 nM	6690 nM	–	–	C[C@@]1(c2cc([N+](=O)[O-])ccc2F)CS(=O)(=O)[C@]2(CCOC2)C(=N)N1
2.4 nM	9.3 nM	–	–	C[C@@]1(c2cc(NC(=O)c3ccc(F)cn3)ccc2F)CS(=O)(=O)C2(CCC(O)C2)C(=N)N1 (single isomer, unassigned) [Example 76a]
< 50 nM	20.2 nM	–	–	C[C@@]1(c2sc(-c3cccc(-c4nnco4)c3)cc2Cl)CS(=O)(=O)[C@@]2(CCOC2)C(=N)N1 [Example 63g]
< 50 nM	11.7 nM	–	–	COc1cnc(C(=O)Nc2ccc(F)c([C@]3(C)CS(=O)(=O)C4(CCC4)C(=N)N3)c2)cn1 [Example 7]
2.5 nM	12.6 nM	–	–	C[C@@]1(c2cc(NC(=O)c3ncc(F)cc3F)ccc2F)CS(=O)(=O)C2(CCC2)C(=N)N1 [Example 9]
< 50 nM	130 nM	–	–	C[C@@]1(c2sc(-c3cncc(C#N)c3)cc2Cl)CS(=O)(=O)C2(CCOCC2)C(=N)N1 [Example 50]
2.7 nM	18.7 nM	–	–	C[C@@]1(c2cc(NC(=O)c3ccc(F)cn3)ccc2F)CS(=O)(=O)[C@@]2(CCOC2)C(=N)N1 [Example 63b]
< 50 nM	11 nM	–	–	C[C@@]1(c2sc(-c3cccc(-c4nnco4)c3)cc2Cl)CS(=O)(=O)C2(CC2)C(=N)N1 [Example 65a]
1.5 nM	3.6 nM	–	–	COc1cnc(C(=O)Nc2ccc(F)c([C@]3(C)CS(=O)(=O)C4(CCCC4)C(=N)N3)c2)cn1 [Example 17]
1.9 nM	3.4 nM	–	–	COc1ccc(C(=O)Nc2ccc(F)c([C@]3(C)CS(=O)(=O)C4(CC4)C(=N)N3)c2)nc1 [Example 5]
3820 nM	–	–	38%	C[C@@]1(c2cc(N)ccc2F)CS(=O)(=O)[C@@]2(CCOC2)C(=N)N1
715 nM	2610 nM	–	–	C[C@@]1(c2sc(Br)cc2Cl)CS(=O)(=O)C2(CCCCC2)C(=N)N1
0.6 nM	5.2 nM	–	–	COc1ccc(C(=O)Nc2ccc(F)c([C@]3(C)CS(=O)(=O)C4(CCCC4)C(=N)N3)c2)nc1 [Example 15]
< 50 nM	147 nM	–	–	C[C@@]1(c2sc(-c3cccc(C(F)(F)F)c3)cc2Cl)CS(=O)(=O)C2(CCOCC2)C(=N)N1 [Example 52]
< 20 nM	56 nM	–	–	C[C@@]1(c2sc(-c3cncc(C#N)c3)cc2Cl)CS(=O)(=O)C2(CCC2)C(=N)N1 [Example 59]
< 50 nM	104 nM	–	–	C[C@@]1(c2cc(NC(=O)c3ccc(F)cn3)ccc2F)CS(=O)(=O)C2(CCC(O)C2)C(=N)N1 (single isomer, unassigned) [Example 76b]
1.9 nM	8 nM	–	–	C[C@@]1(c2cc(NC(=O)c3ccc(Cl)cn3)ccc2F)CS(=O)(=O)C2(CCC2)C(=N)N1 [Example 6]

SMILES	Ki [1]	Ki [2]	inhibition at 1 µM ([2]; read-out: BACE1 % Inh. at 1 μM)	inhibition at 10 µM ([2]; read-out: BACE1 % Inh. at 10 μM)
C[C@@]1(c2cc(NC(=O)c3ccc(Cl)cn3)ccc2F)CS(=O)(=O)[C@@]2(CCOC2)C(=N)N1 [Example 63c]	1.3 nM	5.9 nM	–	–
C[C@@]1(c2cc(NC(=O)c3ccc(F)cn3)ccc2F)CS(=O)(=O)C2(CC(O)C2)C(=N)N1 (stereo partly drawn) [Example 74]	3.8 nM	21.8 nM	–	–
C[C@@]1(c2sc(Br)cc2Cl)CS(=O)(=O)C2(CC2)C(=N)N1	465 nM	912 nM	–	–
